Source: ChEMBL document CHEMBL1201862, “PubChem BioAssay data set” (2004)
Blank lines part the entries; values can stand above or below the molecule they belong to. Activity calls are given as the source filed them.

How the values were obtained:
Format in all cases: functional
[1] = target: Serine/threonine-protein kinase BRSK1 (Homo sapiens, UniProt Q8TDC3);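 also: measured within a kinome-wide kinase panel, with the target listed as KIAA1811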
[2] = target: Protein kinase C iota type (Homo sapiens, UniProt P41743);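 also: measured within a kinome-wide kinase panel, PRKCI as panel member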
[3] = target: Dual specificity tyrosine-phosphorylation-regulated kinase 4 (Homo sapiens, UniProt Q9NR20)
[4] = target: Serine/threonine-protein kinase MRCK alpha (Homo sapiens, UniProt Q5VT25)
[5] = target: Vascular endothelial growth factor receptor 2 (Homo sapiens, UniProt P35968)
[6] = target: STE20-like serine/threonine-protein kinase (Homo sapiens, UniProt Q9H2G2)
[7] = target: RAC-gamma serine/threonine-protein kinase (Homo sapiens, UniProt Q9Y243)
[8] = target: Casein kinase I isoform gamma-1 (Homo sapiens, UniProt Q9HCP0);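 also: measured as the CSNK1G1 member of a kinome profiling panel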
[9] = target: Serine/threonine-protein kinase 17A (Homo sapiens, UniProt Q9UEE5)
[10] = target: Dual specificity protein kinase CLK4 (Homo sapiens, UniProt Q9HAZ1)
[11] = target: Non-receptor tyrosine-protein kinase TYK2 (Homo sapiens, UniProt P29597)
[12] = target: Mitogen-activated protein kinase 9 (Homo sapiens, UniProt P45984);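 also: value from a kinome panel profiling assay, MAPK9 panel entry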
[13] = target: Casein kinase II subunit alpha (Homo sapiens, UniProt P68400)
[14] = target: Homeodomain-interacting protein kinase 2 (Homo sapiens, UniProt Q9H2X6);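 also: measured within a kinome-wide kinase profiling panel, HIPK2 being one panel member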
[15] = target: Dual specificity protein kinase CLK2 (Homo sapiens, UniProt P49760)
[16] = target: Misshapen-like kinase 1 (Homo sapiens, UniProt Q8N4C8);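 also: kinome panel screen with MINK as the panel member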
[17] = target: Testis-specific serine/threonine-protein kinase 1 (Homo sapiens, UniProt Q9BXA7)
[18] = target: Cyclin-dependent kinase 5 (Homo sapiens, UniProt Q00535);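 also: CDK5 measured as one member of a kinase profiling panel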
[19] = target: Serine/threonine-protein kinase pim-1 (Homo sapiens, UniProt P11309)
[20] = target: Insulin receptor (Homo sapiens, UniProt P06213);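 also: insulin receptor kinase tested as one member of a kinome-wide kinase panel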
[21] = target: Serine/threonine-protein kinase PLK4 (Homo sapiens, UniProt O00444);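 also: PLK4 measured as one member of a kinome-wide kinase profiling panel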
[22] = target: Tyrosine-protein kinase Lyn (Homo sapiens, UniProt P07948);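 also: lyn as one member of a kinase panel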
[23] = target: 5'-AMP-activated protein kinase catalytic subunit alpha-1 (Homo sapiens, UniProt Q13131)
[24] = target: Receptor-type tyrosine-protein kinase FLT3 (Homo sapiens, UniProt P36888);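 also: FLT3 was tested as one member of a kinome-wide kinase panel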
[25] = target: Glycogen synthase kinase-3 beta (Homo sapiens, UniProt P49841);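 also: value comes from a broad kinome profiling panel, with GSK3B as the panel member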
[26] = target: T1, Apoptotic protease-activating factor 1 (Homo sapiens, UniProt O14727)
T1 sequence (O14727 whole entry): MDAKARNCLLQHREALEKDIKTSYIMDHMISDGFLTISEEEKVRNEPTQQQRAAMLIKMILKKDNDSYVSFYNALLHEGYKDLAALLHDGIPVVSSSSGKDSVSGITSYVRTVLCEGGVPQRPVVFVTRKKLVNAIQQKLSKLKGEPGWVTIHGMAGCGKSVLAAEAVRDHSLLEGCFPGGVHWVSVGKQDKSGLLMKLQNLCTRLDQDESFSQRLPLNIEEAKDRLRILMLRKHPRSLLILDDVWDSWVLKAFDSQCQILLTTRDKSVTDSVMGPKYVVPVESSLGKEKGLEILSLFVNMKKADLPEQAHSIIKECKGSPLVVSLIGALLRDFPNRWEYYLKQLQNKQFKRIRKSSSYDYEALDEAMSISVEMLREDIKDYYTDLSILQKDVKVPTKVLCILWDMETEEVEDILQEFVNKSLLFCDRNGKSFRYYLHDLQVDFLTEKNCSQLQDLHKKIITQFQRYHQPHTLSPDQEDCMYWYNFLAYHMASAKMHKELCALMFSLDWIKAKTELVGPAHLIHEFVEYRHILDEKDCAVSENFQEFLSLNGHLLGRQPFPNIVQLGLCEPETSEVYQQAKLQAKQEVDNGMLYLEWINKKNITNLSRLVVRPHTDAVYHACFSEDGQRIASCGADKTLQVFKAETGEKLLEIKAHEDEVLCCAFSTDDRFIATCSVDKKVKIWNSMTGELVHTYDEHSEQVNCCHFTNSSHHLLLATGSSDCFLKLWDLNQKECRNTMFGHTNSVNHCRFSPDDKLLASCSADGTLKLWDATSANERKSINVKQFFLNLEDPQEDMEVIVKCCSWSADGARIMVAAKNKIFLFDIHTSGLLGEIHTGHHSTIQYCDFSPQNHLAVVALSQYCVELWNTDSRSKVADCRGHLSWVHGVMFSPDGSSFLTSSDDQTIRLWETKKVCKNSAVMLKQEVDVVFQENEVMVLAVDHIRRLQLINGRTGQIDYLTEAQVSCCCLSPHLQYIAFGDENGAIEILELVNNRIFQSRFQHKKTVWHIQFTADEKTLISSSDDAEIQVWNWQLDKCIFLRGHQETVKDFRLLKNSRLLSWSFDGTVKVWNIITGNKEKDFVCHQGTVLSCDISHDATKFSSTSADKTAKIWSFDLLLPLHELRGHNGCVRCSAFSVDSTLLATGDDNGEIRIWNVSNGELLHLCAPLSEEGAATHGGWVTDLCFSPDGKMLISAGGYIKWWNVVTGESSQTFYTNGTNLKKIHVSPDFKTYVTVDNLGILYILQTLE

Chain of Homeodomain-interacting protein kinase 2 (Q9H2X6 whole entry): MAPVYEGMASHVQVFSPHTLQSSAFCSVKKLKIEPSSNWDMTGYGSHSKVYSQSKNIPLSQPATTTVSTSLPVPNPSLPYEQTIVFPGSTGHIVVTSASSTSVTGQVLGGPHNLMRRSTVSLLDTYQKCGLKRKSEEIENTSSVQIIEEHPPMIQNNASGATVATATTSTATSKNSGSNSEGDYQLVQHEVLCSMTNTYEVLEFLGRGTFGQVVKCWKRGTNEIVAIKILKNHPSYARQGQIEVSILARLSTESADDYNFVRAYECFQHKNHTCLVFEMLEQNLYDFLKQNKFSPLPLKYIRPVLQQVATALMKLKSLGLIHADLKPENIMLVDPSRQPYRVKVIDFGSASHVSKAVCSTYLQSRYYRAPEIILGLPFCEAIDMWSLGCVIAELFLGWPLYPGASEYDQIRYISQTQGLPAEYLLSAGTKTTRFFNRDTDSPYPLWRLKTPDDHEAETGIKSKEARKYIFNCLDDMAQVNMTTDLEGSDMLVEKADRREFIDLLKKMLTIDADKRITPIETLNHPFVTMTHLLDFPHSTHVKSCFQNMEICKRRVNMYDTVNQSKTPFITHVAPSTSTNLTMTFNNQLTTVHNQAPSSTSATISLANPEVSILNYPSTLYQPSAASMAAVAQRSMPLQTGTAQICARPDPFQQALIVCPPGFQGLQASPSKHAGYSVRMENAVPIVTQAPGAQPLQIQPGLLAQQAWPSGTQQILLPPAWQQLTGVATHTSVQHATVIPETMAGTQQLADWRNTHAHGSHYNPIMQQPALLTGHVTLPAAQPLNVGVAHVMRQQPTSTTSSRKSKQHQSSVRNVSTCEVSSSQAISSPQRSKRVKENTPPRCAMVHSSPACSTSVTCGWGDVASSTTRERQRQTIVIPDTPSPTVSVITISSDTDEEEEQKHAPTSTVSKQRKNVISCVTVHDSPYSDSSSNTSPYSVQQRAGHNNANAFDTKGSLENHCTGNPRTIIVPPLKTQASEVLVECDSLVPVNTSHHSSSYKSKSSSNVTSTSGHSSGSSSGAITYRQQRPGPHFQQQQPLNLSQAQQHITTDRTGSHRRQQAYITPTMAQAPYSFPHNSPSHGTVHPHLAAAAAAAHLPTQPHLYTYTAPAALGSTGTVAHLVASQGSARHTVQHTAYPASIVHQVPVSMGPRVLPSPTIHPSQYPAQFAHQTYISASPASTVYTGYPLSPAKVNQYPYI
Chain of Vascular endothelial growth factor receptor 2 (P35968 whole entry): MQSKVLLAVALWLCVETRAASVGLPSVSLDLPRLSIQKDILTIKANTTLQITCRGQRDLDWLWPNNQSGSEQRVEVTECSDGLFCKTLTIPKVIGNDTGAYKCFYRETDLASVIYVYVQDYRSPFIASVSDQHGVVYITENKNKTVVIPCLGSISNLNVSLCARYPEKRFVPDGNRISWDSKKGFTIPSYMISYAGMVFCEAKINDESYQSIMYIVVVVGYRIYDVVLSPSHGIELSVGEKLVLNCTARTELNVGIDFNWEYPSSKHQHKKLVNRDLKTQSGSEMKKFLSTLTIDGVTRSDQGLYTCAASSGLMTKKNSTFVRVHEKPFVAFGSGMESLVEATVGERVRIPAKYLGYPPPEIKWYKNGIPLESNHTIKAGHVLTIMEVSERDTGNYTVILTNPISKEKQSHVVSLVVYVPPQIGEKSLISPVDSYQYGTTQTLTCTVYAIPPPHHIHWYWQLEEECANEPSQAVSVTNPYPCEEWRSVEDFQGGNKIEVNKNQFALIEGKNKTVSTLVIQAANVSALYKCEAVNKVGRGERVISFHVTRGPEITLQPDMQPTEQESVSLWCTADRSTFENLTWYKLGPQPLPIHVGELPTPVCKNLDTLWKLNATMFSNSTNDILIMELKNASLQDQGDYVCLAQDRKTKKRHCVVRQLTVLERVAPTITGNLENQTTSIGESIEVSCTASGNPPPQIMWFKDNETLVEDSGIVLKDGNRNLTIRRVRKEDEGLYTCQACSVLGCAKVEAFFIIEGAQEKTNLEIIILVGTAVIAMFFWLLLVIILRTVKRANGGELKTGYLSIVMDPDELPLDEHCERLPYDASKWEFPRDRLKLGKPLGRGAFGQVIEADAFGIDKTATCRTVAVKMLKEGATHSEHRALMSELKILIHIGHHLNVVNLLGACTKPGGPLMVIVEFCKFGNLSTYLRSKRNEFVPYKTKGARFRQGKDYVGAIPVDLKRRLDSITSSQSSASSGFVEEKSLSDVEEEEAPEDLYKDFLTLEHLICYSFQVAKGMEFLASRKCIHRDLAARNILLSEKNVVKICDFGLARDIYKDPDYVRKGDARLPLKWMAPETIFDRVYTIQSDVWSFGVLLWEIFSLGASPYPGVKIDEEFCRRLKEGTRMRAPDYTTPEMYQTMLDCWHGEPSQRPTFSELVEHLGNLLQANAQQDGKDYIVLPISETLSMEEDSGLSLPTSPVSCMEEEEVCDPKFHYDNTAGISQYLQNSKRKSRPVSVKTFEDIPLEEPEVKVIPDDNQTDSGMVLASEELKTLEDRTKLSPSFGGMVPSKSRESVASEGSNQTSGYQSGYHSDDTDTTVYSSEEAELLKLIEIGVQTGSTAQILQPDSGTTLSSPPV
Chain of Serine/threonine-protein kinase 17A (Q9UEE5 whole entry): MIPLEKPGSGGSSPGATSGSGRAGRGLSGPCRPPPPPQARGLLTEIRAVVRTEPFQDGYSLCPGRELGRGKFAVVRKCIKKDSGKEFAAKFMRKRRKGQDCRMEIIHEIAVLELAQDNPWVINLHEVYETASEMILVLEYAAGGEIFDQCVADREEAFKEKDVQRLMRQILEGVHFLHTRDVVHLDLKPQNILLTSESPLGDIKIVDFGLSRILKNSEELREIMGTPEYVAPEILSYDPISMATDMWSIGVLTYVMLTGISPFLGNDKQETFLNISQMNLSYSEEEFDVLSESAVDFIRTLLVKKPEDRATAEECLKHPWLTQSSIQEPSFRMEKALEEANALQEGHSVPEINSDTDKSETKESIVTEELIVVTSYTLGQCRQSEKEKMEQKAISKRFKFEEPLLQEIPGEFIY
Chain of Dual specificity protein kinase CLK4 (Q9HAZ1 whole entry): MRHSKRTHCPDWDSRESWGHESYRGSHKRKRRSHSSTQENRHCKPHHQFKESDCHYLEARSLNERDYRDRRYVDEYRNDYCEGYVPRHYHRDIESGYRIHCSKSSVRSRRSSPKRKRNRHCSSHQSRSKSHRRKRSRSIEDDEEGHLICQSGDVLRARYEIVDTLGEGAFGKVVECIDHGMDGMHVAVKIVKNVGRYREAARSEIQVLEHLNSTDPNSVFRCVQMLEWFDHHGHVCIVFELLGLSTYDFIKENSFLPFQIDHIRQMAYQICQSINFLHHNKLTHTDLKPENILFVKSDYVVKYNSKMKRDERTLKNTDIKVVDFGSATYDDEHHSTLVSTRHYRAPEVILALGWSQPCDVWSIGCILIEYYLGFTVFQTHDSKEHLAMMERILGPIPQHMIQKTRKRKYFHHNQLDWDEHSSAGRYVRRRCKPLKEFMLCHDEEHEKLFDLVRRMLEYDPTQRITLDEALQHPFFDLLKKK
Chain of Serine/threonine-protein kinase PLK4 (O00444 whole entry): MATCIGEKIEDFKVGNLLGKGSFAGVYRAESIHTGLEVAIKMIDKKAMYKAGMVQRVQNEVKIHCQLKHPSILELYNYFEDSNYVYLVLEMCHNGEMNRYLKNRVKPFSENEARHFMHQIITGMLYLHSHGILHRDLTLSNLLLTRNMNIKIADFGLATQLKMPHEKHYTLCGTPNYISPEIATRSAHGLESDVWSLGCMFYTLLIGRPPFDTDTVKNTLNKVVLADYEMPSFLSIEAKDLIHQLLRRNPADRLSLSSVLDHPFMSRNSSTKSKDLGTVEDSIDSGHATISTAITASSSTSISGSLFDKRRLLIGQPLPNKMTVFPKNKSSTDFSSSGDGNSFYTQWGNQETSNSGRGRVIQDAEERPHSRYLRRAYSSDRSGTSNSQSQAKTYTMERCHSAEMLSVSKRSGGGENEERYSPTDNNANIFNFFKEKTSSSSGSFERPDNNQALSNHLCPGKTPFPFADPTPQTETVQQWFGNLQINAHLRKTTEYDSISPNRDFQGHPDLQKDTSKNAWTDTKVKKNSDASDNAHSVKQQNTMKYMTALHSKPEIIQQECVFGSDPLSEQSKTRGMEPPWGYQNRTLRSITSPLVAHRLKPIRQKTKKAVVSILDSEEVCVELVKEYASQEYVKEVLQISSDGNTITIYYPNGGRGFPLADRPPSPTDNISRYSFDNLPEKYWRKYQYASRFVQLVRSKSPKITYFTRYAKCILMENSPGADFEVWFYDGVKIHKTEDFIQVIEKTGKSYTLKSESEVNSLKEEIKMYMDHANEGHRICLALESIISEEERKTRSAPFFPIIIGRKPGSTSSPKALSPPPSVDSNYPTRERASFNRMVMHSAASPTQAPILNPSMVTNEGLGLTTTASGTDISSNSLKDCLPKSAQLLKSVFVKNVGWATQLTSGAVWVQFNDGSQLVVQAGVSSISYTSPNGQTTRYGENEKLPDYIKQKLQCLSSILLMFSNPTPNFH
Chain of Testis-specific serine/threonine-protein kinase 1 (Q9BXA7 whole entry): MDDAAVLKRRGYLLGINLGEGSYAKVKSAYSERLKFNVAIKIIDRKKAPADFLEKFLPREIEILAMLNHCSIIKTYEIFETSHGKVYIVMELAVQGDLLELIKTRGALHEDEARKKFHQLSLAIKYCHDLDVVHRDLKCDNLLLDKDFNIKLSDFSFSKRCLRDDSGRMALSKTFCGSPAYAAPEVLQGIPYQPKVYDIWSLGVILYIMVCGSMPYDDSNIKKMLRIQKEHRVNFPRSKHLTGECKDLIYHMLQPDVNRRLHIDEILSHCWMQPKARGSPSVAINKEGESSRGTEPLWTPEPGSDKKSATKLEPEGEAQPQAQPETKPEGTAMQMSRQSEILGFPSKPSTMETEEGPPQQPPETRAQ
Chain of Cyclin-dependent kinase 5 (Q00535 whole entry): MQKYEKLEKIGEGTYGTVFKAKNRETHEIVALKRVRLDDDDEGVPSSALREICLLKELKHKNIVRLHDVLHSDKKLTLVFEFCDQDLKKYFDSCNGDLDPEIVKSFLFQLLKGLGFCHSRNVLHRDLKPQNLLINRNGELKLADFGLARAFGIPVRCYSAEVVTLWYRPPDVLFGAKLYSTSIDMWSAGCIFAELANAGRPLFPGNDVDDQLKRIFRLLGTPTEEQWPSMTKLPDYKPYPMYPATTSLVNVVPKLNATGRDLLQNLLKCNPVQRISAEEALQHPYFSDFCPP

- Ki [1]: > 10 µM (inactive)
- Ki [2]: > 5.01 µM (inactive)
- Ki [3]: > 7.94 µM (inactive)
- Ki [4]: > 10 µM (inactive)
- Ki [5]: > 7.94 µM (inactive)
- Ki [6]: > 10 µM (inactive)
- Ki [7]: > 10 µM (inactive)
- Ki [8]: > 6.31 µM (inactive)
- Ki [9]: > 3.98 µM (inactive)
- Ki [10]: > 10 µM (inactive)
- Ki [11]: > 2 µM (inactive)
- Ki [12]: > 3.98 µM (inactive)
- Ki [13]: > 6.31 µM (inactive)
- Ki [14]: > 3.16 µM (inactive)
- Ki [15]: > 7.94 µM (inactive)
- Ki [16]: > 7.94 µM (inactive)
- Ki [17]: > 1.58 µM (inactive)
- Ki [18]: > 10 µM (inactive)
- Ki [19]: > 10 µM (inactive)
- Ki [20]: > 5.01 µM (inactive)
- Ki [21]: > 3.98 µM (inactive)
- Ki [22]: 0.316 µM (active)
- Ki [23]: > 1.58 µM (inactive)
- Ki [24]: 0.631 µM (active)
- Ki [25]: 2.51 µM (active)
SMILES: Cn1cncc1C(OCc1c(-c2ccc(OC(F)(F)F)cc2)cc(C#N)c(=O)n1C)c1ccc(C#N)cc1 (stereo unspecified)

SMILES: CCc1ccc(S(=O)(=O)/N=C2\C=C(NS(=O)(=O)c3ccccc3)C(=O)c3ccccc32)cc1
- IC50 [26]: 13.3 µM (active)
